This passage reports Activity, IC50 and viability results from ChEMBL document CHEMBL6134797, “Exploring 7β-amino-6-nitrocholestens as COVID-19 antivirals: in silico, synthesis, evaluation, and integration of artificial intelligence (AI) in drug design: assessing the cytotoxicity and antioxidant activity of 3β-acetoxynitrocholestane” (RSC Med Chem, 2024).

In brackets after ≈: the same amount, converted by molar mass. Activity calls are given as the source filed them. The rule behind the calls is not given here.

Data set [1] in a line: Antioxidant activity assessed as DPPH radical scavenging activity at 10 ug/ml measured after 30 mins by UV-vis spectrophotometry relative to control. Format: functional. The note with it: dose 10.0 µg/ml. A general note: Loss of DPPH colour is used to gauge radical scavenging.
A short description of data set [2]: Antioxidant activity assessed as DPPH radical scavenging activity measured after 30 mins by UV-vis spectrophotometry. Type of data set: functional.
Data set [3] has as its system HT-29. Kind of data set: Cytotoxicity against human HT-29 cells assessed as reduction in cell viability measured after 24 hrs by MTT assay. Format: functional, cell-based.
A short description of data set [4]: Cytotoxicity against splenocytes (unknown origin) assessed as reduction in cell viability at 1.25 to 20 uM measured after 24 hrs by MTT assay. Type of data set: toxicity, cell-based. As to conditions: splenocyte, dose 1.25-20 µM. (Tetrazolium dyes change colour on reduction, which living cells bring about.)
The subject of data set [5] is SW-620. Kind of data set: Cytotoxicity against human SW620 cells assessed as cell viability at 20 uM measured after 24 hrs by MTT assay relative to control. Type of data set: functional. The note with it: read-out: Activity.
In data set [6] the test system is HT-29. Nature of the data set: Cytotoxicity against human HT-29 cells assessed as cell viability at 20 uM measured after 24 hrs by MTT assay relative to control. The note with it: read-out: Activity. Format: functional.
The test system of data set [7] is SW-620. Nature of the data set: Cytotoxicity against human SW620 cells assessed as reduction in cell viability measured after 24 hrs by MTT assay. Format: functional, cell-based.
Data set [8] in a line: Antioxidant activity assessed as DPPH radical scavenging activity up to 10 ug/ml measured after 30 mins by UV-vis spectrophotometry. Type of data set: functional. The note with it: dose <= 10.0 µg/ml.

Regarding `CCN(CC)[C@H]1C([N+](=O)[O-])=C2C=CCC[C@]2(C)[C@H]2CC[C@]3(C)[C@@H]([C@H](C)CCCC(C)C)CC[C@H]3[C@H]12`, the Activity in data set [1] is 64.8%.
Consider `CN[C@H]1C([N+](=O)[O-])=C2C[C@@H](O)CC[C@]2(C)[C@H]2CC[C@]3(C)[C@@H]([C@H](C)CCCC(C)C)CC[C@H]3[C@H]12`, for which the Activity in data set [1] is 51.2%.
Take `CC(C)CCC[C@@H](C)[C@H]1CC[C@H]2[C@@H]3[C@@H](N(C)C)C([N+](=O)[O-])=C4C=CCC[C@]4(C)[C@H]3CC[C@]12C`: the IC50 in data set [2] turned out to be 3.08 µg/mL (≈ 6.74 µM). Besides, in data set [1], the Activity worked out at 80.6%.
Take `CN[C@H]1C([N+](=O)[O-])=C2C=CCC[C@]2(C)[C@H]2CC[C@]3(C)[C@@H]([C@H](C)CCCC(C)C)CC[C@H]3[C@H]12`: in data set [1], the Activity turned out to be 67.9%.
For the molecule `CC(=O)O[C@@H]1C=C2C([N+](=O)[O-])=C[C@H]3[C@@H]4CC[C@H]([C@H](C)CCCC(C)C)[C@@]4(C)CC[C@@H]3[C@@]2(C)CC1`, the IC50 in data set [2] turned out to be 2.78 µg/mL (≈ 5.89 µM); in the data set on HT-29 [3] (HT-29, 24 h), 11.5 µM; with SW-620 [7] (SW-620, 24 h), 10 µM. Besides, the Activity entry was “Dose-dependent-effect” with HT-29 [3], “Non-toxic” in data set [4], “Dose-dependent-effect” in the data set on SW-620 [7] and 86.2% in data set [1]. In addition, the viability at 20 µM in the data set on SW-620 [5] was found to be 15.2%; with HT-29 [6], 10.8%.
Consider `O=C1O[C@H]([C@@H](O)CO)C(O)=C1O`, for which the result in data set [8] was Active.
Consider `CN[C@H]1C([N+](=O)[O-])=C2C=C(Cl)CC[C@]2(C)[C@H]2CC[C@]3(C)[C@@H]([C@H](C)CCCC(C)C)CC[C@H]3[C@H]12`, for which the Activity in data set [1] came out at 66.5%.

The IC50 is the midpoint of a concentration-inhibition curve.
